Values quoted from earlier work as cited in US6376005B2, “Antimicrobial composition for food and beverage products” (The Procter & Gamble Company, priority 1997, dated 2002).

For `C[C@@H]1C/C=C/C=C/C=C/C=C/[C@H](O[C@@H]2O[C@H](C)[C@@H](O)[C@H](N)[C@@H]2O)C[C@@H]2O[C@](O)(C[C@@H](O)C[C@H]3O[C@@H]3/C=C/C(=O)O1)C[C@H](O)[C@H]2C(=O)O` [natamycin], the “effectiveness against yeasts such as Zygosaccharomyces bailii” value (Zygosaccharomyces bailii) is listed as “particularly effective” and the effectiveness against bacteria (bacteria) is listed as “not effective”.

For `C/C=C/C=C/C(=O)[O-].[K+]` [potassium sorbate], the “effectiveness against yeasts such as Zygosaccharomyces bailii” value (Zygosaccharomyces bailii) is listed as “not effective”.
